Results reported in patent US11712438B2, “Phenyl derivatives as PGE2 receptor modulators” (IDORSIA PHARMACEUTICALS LTD, priority 2017, dated 2023).
One block for each compound: values may come before it.

Tests used:
Assay in all cases: cell-based
EP4 = EP4 (Homo sapiens, UniProt P35408);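 note: inhibition of PGE2-evoked (6 nM) cAMP accumulation in BT549 breast cancer cells endogenously expressing EP4, cAMP read by HTRF competitive immunoassay after 30 min at room temperature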
EP2 = EP2 (Homo sapiens, UniProt P43116);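 note: SF295 glioblastoma cells with endogenous EP2 only, PGE2-stimulated cAMP accumulation read by HTRF competitive immunoassay, 45 min pre-incubation then 30 min at room temperature, IBMX in buffer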
PTGER2 (EP2) = PTGER2 (EP2) (Homo sapiens, UniProt P43116)
Source text: The assay is using the PathHunter™ HEK 293 PTGER2 and PTGER4 b-arrestin cell lines from DiscoverX. The system is based on the Enzyme Fragment Complementation Technology. Two complementing fragments of the b-galactosidase enzyme are expressed within stably transfected cells. The larger portion of b-gal, termed EA for Enzyme Acceptor, is fused to the C-terminus of b-arrestin 2. The smaller fragment, termed ProLink™ tag, is fused to PTGER2 (EP2) or PTRGER4 (EP4) at the C-terminus. Upon activation, b-arrestin is recruited which forces the interaction of ProLink and EA, allowing complementation of the two fragments of b-gal and the formation of a functional enzyme which is capable of hydrolysing the substrate and generating a chemiluminescent signal.
The HEK 293 PTGER2 b-arrestin cells (DiscoverX 93-021-4C1) are detached from culture dishes with a cell dissociation buffer (Invitrogen, 13151-014), and collected in growing medium (GM: DMEM+Glutamax-I (Invitrogen 32430)/10% FCS, 1% Penicilin/streptomycin). 5000 cells per well of a 384 well plate (white with white bottom Greiner 781080) are seeded in 20 ul per well of GM. Plate is incubated at 37° C., 5% CO2 for 24 hours.
Stock solutions of test compounds are made at a concentration of 10 mM in DMSO, and serially diluted in DMSO to concentrations required for inhibition dose response curves (tested concentration range 10 μM-2 nM or 1 μM-0.2 nM).
PGE2 (Cayman 14010, stock solution: 10 mM in DMSO) is used as agonist at 5 μM final concentration, corresponding to EC80.
Five microliters of diluted compounds are transferred into the assay plate. Plate is pre-incubated 15 minutes at 37° C. Then five microliters of PGE2 (final conc. 5 μM) are transferred into the assay plate. Plate is incubated 120 minutes at 37° C.
Twelve μl of reagent are transferred to the assay plate and incubate for 1 hour at room temperature in the dark. Luminescence counts are read on a BMG Fluostar Optima reader according to manufacturer's instructions.
For each compound concentration calculate of the percentage of activity compared to DMSO control value as average±STDEV. (each concentration is measured in duplicate)
When compounds were measured multiple times, mean values are given.

PTRGER4 (EP4) = PTRGER4 (EP4) (Homo sapiens, UniProt P35408);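 note: assay plate preincubated 15 min at 37 °C, after which PGE2 was added at 20 nM final and incubation continued 120 min at 37 °C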
PTRGER4 (EP4), sequence (P35408 whole entry): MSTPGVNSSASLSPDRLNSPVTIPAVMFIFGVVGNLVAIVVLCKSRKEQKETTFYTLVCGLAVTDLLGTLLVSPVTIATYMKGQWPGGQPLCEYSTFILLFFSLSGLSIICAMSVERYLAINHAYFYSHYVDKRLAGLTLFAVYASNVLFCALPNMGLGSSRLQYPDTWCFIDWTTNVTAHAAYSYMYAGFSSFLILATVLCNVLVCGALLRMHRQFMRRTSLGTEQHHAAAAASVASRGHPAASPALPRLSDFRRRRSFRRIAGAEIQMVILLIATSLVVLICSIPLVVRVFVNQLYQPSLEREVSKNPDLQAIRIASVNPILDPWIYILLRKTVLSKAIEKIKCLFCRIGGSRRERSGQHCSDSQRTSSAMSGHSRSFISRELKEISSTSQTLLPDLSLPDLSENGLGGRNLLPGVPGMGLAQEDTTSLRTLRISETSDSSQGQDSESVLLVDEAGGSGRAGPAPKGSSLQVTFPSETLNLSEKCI

EP2, sequence (P43116 whole entry): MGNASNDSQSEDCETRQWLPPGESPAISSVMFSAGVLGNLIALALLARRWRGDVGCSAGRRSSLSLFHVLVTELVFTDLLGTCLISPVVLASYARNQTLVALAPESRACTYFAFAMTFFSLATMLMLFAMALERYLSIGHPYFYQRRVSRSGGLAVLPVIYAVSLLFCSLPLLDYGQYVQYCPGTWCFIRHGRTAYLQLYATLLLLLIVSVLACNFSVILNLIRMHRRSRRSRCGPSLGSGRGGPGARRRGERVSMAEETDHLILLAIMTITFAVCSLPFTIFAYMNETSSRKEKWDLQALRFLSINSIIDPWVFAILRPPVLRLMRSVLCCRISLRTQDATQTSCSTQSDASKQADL
PTGER2 (EP2), sequence (P43116 whole entry): as above
EP4, sequence (P35408 whole entry): as the sequence (P35408 whole entry) above

Structure (SMILES): CC(C(=O)O)c1ccc(-c2cc(NCCc3ccc(Br)cc3)ncn2)s1 (racemic) [Example 159, rac-2-(5-{6-[2-(4-Bromo-phenyl)-ethylamino]-pyrimidin-4-yl}-thiophen-2-yl)-propionic acid]
IC50 (EP4): 602 nM | IC50 (EP2): 392 nM

Structure (SMILES): CCOc1cc(-c2cc(NCCc3ccc(SC)cc3OC)ncn2)sc1C(=O)O [Example 4, 3-Ethoxy-5-{6-[2-(2-methoxy-4-methylsulfanyl-phenyl)-ethylamino]-pyrimidin-4-yl}-thiophene-2-carboxylic acid]
IC50 (EP4): 5 nM | IC50 (EP2): 38 nM

Structure (SMILES): CCOc1cc(-c2cc(NCCc3cc(C)c(C)cc3OC)ncn2)sc1C(=O)O [Example 5, 3-Ethoxy-5-{6-[2-(2-methoxy-4,5-dimethyl-phenyl)-ethylamino]-pyrimidin-4-yl}-thiophene-2-carboxylic acid]
IC50 (EP4): 6 nM | IC50 (EP2): 45 nM

Structure (SMILES): COc1cc(SC)ccc1CCNc1cc(-c2ccc(C(=O)O)c(OC3CCC3)c2)ncn1 [Example 8, 2-Cyclobutoxy-4-{6-[2-(2-methoxy-4-methylsulfanyl-phenyl)-ethylamino]-pyrimidin-4-yl}-benzoic acid]
IC50 (EP4): 262 nM | IC50 (EP2): 340 nM

Structure (SMILES): Cn1[nH]c(=O)c2ccc(-c3cc(NCCc4ccc(Br)cc4)ncn3)cc21 [Example 9, 6-{6-[2-(4-Bromo-phenyl)-ethylamino]-pyrimidin-4-yl}-1-methyl-1,2-dihydro-indazol-3-one]
IC50 (EP4): 1080 nM | IC50 (EP2): 642 nM

Structure (SMILES): COc1cc(-c2cc(NCCc3ccc(Br)cc3)ncn2)ccc1O [Example 10, 4-{6-[2-(4-Bromo-phenyl)-ethylamino]-pyrimidin-4-yl}-2-methoxy-phenol]
IC50 (EP4): 798 nM | IC50 (EP2): 931 nM

Structure (SMILES): Oc1c(F)cc(-c2cc(NCCc3ccc(Br)cc3)ncn2)cc1F [Example 12, 4-{6-[2-(4-Bromo-phenyl)-ethylamino]-pyrimidin-4-yl}-2,6-difluoro-phenol]
IC50 (EP4): 617 nM | IC50 (EP2): 885 nM

Structure (SMILES): COc1cc(-c2cc(NCCc3ccc(Br)cc3)ncn2)sc1C1(O)COC1 [Example 13, 3-(5-{6-[2-(4-Bromo-phenyl)-ethylamino]-pyrimidin-4-yl}-3-methoxy-thiophen-2-yl)-oxetan-3-ol]
IC50 (EP4): 636 nM | IC50 (EP2): 294 nM

Structure (SMILES): O=c1[nH]c(-c2ccc(-c3cc(NCCc4ccc(Br)cc4)ncn3)cc2)no1 [Example 14, 3-(4-{6-[2-(4-Bromo-phenyl)-ethylamino]-pyrimidin-4-yl}-phenyl)-[1,2,4]oxadiazol-5(4H)-one]
IC50 (EP4): 262 nM | IC50 (EP2): 257 nM

Structure (SMILES): COc1cc(-c2cc(NCCc3ccc(Br)cc3)ncn2)ccc1OCCO [Example 16, 2-(4-{6-[2-(4-Bromo-phenyl)-ethylamino]-pyrimidin-4-yl}-2-methoxy-phenoxy)-ethanol]
IC50 (EP4): 914 nM | IC50 (EP2): 795 nM

Structure (SMILES): CCOc1cc(-c2cc(NCCc3c(OC)cc(Br)cc3OC)ncn2)ccc1C(=O)O [Example 52, 4-{6-[2-(4-Bromo-2,6-dimethoxy-phenyl)-ethylamino]-pyrimidin-4-yl}-2-ethoxy-benzoic acid]
IC50 (EP4): 626 nM | IC50 (EP2): 343 nM

Structure (SMILES): CCOc1cc(-c2cc(NCCc3ccc(F)cc3)ncn2)sc1C(=O)O [Example 80, 3-Ethoxy-5-{6-[2-(4-fluoro-phenyl)-ethylamino]-pyrimidin-4-yl}-thiophene-2-carboxylic acid]
IC50 (EP4): 366 nM | IC50 (EP2): 255 nM

Structure (SMILES): CCOc1cc(-c2cc(NCCc3ccc(Br)cc3N(C)C)ncn2)sc1-c1noc(=O)[nH]1 [Example 109, 3-(5-{6-[2-(4-Bromo-2-dimethylamino-phenyl)-ethylamino]-pyrimidin-4-yl}-3-ethoxy-thiophen-2yl)-[1,2,4]oxadiazol-5(4H)-one]
IC50 (EP4): 254 nM | IC50 (EP2): 558 nM

Structure (SMILES): CCOc1cc(-c2cc(NCCc3ccc(Br)cc3Cl)ncn2)sc1-c1noc(=O)[nH]1 [Example 124, 3-(5-{6-[2-(4-Bromo-2-chloro-phenyl)-ethylamino]-pyrimidin-4-yl}-3-ethoxy-thiophen-2-yl)-[1,2,4]oxadiazol-5(4H)-one]
IC50 (EP4): 36 nM | IC50 (EP2): 46 nM

Structure (SMILES): CCOc1cc(-c2cc(NCCc3ccc(Br)cc3)ncn2)sc1-c1noc(C2COC2)n1 [Example 142, [2-(4-Bromo-phenyl)-ethyl]-{6-[4-ethoxy-5-(5-oxetan-3-yl-[1,2,4]oxadiazol-3-yl)-thiophen-2-yl]-pyrimidin-4-yl}-amine]
IC50 (EP4): 571 nM | IC50 (EP2): 700 nM

Structure (SMILES): CCCc1cc(-c2cc(NCCc3c(F)cc(Br)cc3F)ncn2)ccc1Cc1noc(=O)[nH]1 [Example 284, 3-(4-{6-[2-(4-Bromo-2,6-difluoro-phenyl)-ethylamino]-pyrimidin-4-yl}-2-propyl-benzyl)-[1,2,4]oxadiazol-5(4H)-one]
IC50 (PTGER2 (EP2)): 295 nM | IC50 (PTRGER4 (EP4)): 199 nM

Structure (SMILES): Fc1cc(Br)cc(F)c1CCNc1cc(-c2ccc3nccn3c2)ncn1 [Example 309, [2-(4-Bromo-2,6-difluoro-phenyl)-ethyl]-(6-imidazo[1,2-a]pyridin-6-yl-pyrimidin-4-yl)-amine]
IC50 (PTGER2 (EP2)): 352 nM | IC50 (PTRGER4 (EP4)): 875 nM

Second part, the compound after the results:

IC50 (EP4): 30 nM | IC50 (EP2): 55 nM
Structure (SMILES): O=C(O)c1sc(-c2cc(NCCc3c(F)cc(Br)cc3F)ncn2)cc1OCCO [Example 32, 5-{6-[2-(4-Bromo-2,6-difluoro-phenyl)-ethylamino]-pyrimidin-4-yl}-3-(2-hydroxy-ethoxy)-thiophene-2-carboxylic acid]

IC50 (PTGER2 (EP2)): 160 nM | IC50 (PTRGER4 (EP4)): 646 nM
Structure (SMILES): CCOc1c(C(=O)O)ccc(-c2cc(NCCc3c(F)cc(Br)cc3F)ncn2)c1F [Example 274, 4-{6-[2-(4-Bromo-2,6-difluoro-phenyl)-ethylamino]-pyrimidin-4-yl}-2-ethoxy-3-fluoro-benzoic acid]

IC50 (PTGER2 (EP2)): 48 nM | IC50 (PTRGER4 (EP4)): 28 nM
Structure (SMILES): CCOc1cc(-c2cc(NCCc3c(F)cc(Br)cc3F)ncn2)ccc1-c1noc(=S)[nH]1 [Example 290, 3-(4-{6-[2-(4-Bromo-2,6-difluoro-phenyl)-ethylamino]-pyrimidin-4-yl}-2-ethoxy-phenyl)-[1,2,4]oxadiazole-5(4H)-thione]

IC50 (PTGER2 (EP2)): 100 nM | IC50 (PTRGER4 (EP4)): 893 nM
Structure (SMILES): COc1cc(C(N)=O)ccc1-c1cc(NCCc2c(F)cc(Br)cc2F)ncn1 [Example 292, 4-{6-[2-(4-Bromo-2,6-difluoro-phenyl)-ethylamino]-pyrimidin-4-yl}-3-methoxy-benzamide]

IC50 (PTGER2 (EP2)): 21 nM | IC50 (PTRGER4 (EP4)): 236 nM
Structure (SMILES): CCOc1cc(-c2cc(NCCc3c(F)cc(Br)cc3F)ncn2)ccc1C(N)=O [Example 297, 4-{6-[2-(4-Bromo-2,6-difluoro-phenyl)-ethylamino]-pyrimidin-4-yl}-2-ethoxy-benzamide]

IC50 (PTGER2 (EP2)): 128 nM | IC50 (PTRGER4 (EP4)): 301 nM
Structure (SMILES): CCOc1cc(-c2cc(NCCc3c(F)cc(Br)cc3F)ncn2)ccc1C(=O)NC [Example 298, 4-{6-[2-(4-Bromo-2,6-difluoro-phenyl)-ethylamino]-pyrimidin-4-yl}-2-ethoxy-N-methyl-benzamide]

IC50 (PTGER2 (EP2)): 145 nM | IC50 (PTRGER4 (EP4)): 255 nM
Structure (SMILES): CCNC(=O)c1ccc(-c2cc(NCCc3c(F)cc(Br)cc3F)ncn2)cc1OCC [Example 299, 4-{6-[2-(4-Bromo-2,6-difluoro-phenyl)-ethylamino]-pyrimidin-4-yl}-2-ethoxy-N-ethyl-benzamide]

IC50 (PTGER2 (EP2)): 118 nM | IC50 (PTRGER4 (EP4)): 640 nM
Structure (SMILES): CCOc1cc(-c2cc(NCCc3c(F)cc(Br)cc3F)ncn2)ccc1C(=O)NCCOC [Example 301, 4-{6-[2-(4-Bromo-2,6-difluoro-phenyl)-ethylamino]-pyrimidin-4-yl}-2-ethoxy-N-(2-methoxy-ethyl)-benzamide]

IC50 (PTGER2 (EP2)): 121 nM | IC50 (PTRGER4 (EP4)): 565 nM
Structure (SMILES): CCOc1cc(-c2cc(NCCc3c(F)cc(Br)cc3F)ncn2)ccc1C(=O)NCC(C)(C)O [Example 302, 4-{6-[2-(4-Bromo-2,6-difluoro-phenyl)-ethylamino]-pyrimidin-4-yl}-2-ethoxy-N-(2-hydroxy-2-methyl-propyl)-benzamide]

IC50 (PTGER2 (EP2)): 44 nM | IC50 (PTRGER4 (EP4)): 163 nM
Structure (SMILES): CCCc1cc(-c2cc(NCCc3c(F)cc(Br)cc3F)ncn2)ccc1C(N)=O [Example 303, 4-{6-[2-(4-Bromo-2,6-difluoro-phenyl)-ethylamino]-pyrimidin-4-yl}-2-propyl-benzamide]

IC50 (PTGER2 (EP2)): 203 nM | IC50 (PTRGER4 (EP4)): 628 nM
Structure (SMILES): CCCc1cc(-c2cc(NCCc3c(F)cc(Br)cc3F)ncn2)ccc1C(=O)NCC [Example 305, 4-{6-[2-(4-Bromo-2,6-difluoro-phenyl)-ethylamino]-pyrimidin-4-yl}-N-ethyl-2-propyl-benzamide]

IC50 (PTGER2 (EP2)): 97 nM | IC50 (PTRGER4 (EP4)): 403 nM
Structure (SMILES): CCCc1cc(-c2cc(NCCc3c(F)cc(Br)cc3F)ncn2)ccc1C(=O)NCCO [Example 306, 4-{6-[2-(4-Bromo-2,6-difluoro-phenyl)-ethylamino]-pyrimidin-4-yl}-N-(2-hydroxy-ethyl)-2-propyl-benzamide]

IC50 (PTGER2 (EP2)): 219 nM | IC50 (PTRGER4 (EP4)): 781 nM
Structure (SMILES): CCCc1cc(-c2cc(NCCc3c(F)cc(Br)cc3F)ncn2)ccc1C(=O)NCCOC [Example 307, 4-{6-[2-(4-Bromo-2,6-difluoro-phenyl)-ethylamino]-pyrimidin-4-yl}-N-(2-methoxy-ethyl)-2-propyl-benzamide]

IC50 (PTGER2 (EP2)): 156 nM | IC50 (PTRGER4 (EP4)): 164 nM
Structure (SMILES): CCCc1cc(-c2cc(NCCc3c(F)cc(Br)cc3F)ncn2)ccc1C(=O)NCC(C)(C)O [Example 308, 4-{6-[2-(4-Bromo-2,6-difluoro-phenyl)-ethylamino]-pyrimidin-4-yl}-N-(2-hydroxy-2-methyl-propyl)-2-propyl-benzamide]

IC50 (PTGER2 (EP2)): 216 nM | IC50 (PTRGER4 (EP4)): 776 nM
Structure (SMILES): OCCOc1ccc(-c2cc(NCCc3c(F)cc(Br)cc3F)ncn2)cc1 [Example 311, 2-(4-{6-[2-(4-Bromo-2,6-difluoro-phenyl)-ethylamino]-pyrimidin-4-yl}-phenoxy)-ethanol]

IC50 (PTGER2 (EP2)): 175 nM | IC50 (PTRGER4 (EP4)): 703 nM
Structure (SMILES): O=C1Cc2cc(-c3cc(NCCc4c(F)cc(Br)cc4F)ncn3)ccc2N1 [Example 312, 5-{6-[2-(4-Bromo-2,6-difluoro-phenyl)-ethylamino]-pyrimidin-4-yl}-1,3-dihydro-indol-2-one]

IC50 (PTGER2 (EP2)): 143 nM | IC50 (PTRGER4 (EP4)): 333 nM
Structure (SMILES): COC(=O)Nc1ccc(-c2cc(NCCc3c(F)cc(Br)cc3F)ncn2)cc1 [Example 313, (4-{6-[2-(4-Bromo-2,6-difluoro-phenyl)-ethylamino]-pyrimidin-4-yl}-phenyl)-carbamic acid methyl ester]
